From patent US9662322B2 (TEVA PHARMACEUTICAL INDUSTRIES, LTD., priority 2014, dated 2017)

How the values were obtained:
[1] = system: patients with RRMS; assay: Post hoc analysis of pooled ALLEGRO and BRAVO trials by baseline EDSS subgroup; assay type: in vivo, human; conditions: for Annualized Relapse Rate, Ratio: LAQ 0.6 mg vs PBO
From the text: The observed effect of LAQ on Confirmed Disability Progression (CDP) is disproportionately larger than would be predicted by the observed LAQ effect on relapse rate reduction.
ALELGRO and BRAVO trials described above enrolled ambulatory patients with RRMS, aged 18-55 years, with EDSS scores ≦5.5. Patients included in the study had • 1. ≧1 relapse in the previous year, or • 2. 2 relapses in the previous 2 years, or • 3. 1 relapse in the previous 1-2 years and ≧1 GdE lesion in the previous year.
Patients were randomized 1:1 to LAQ 0.6 mg or PBO in the ALLEGRO study; in BRAVO patients were randomized 1:1:1 LAQ 0.6 or PBO or weekly interferon β 1a 30 μg.
This post hoc analysis include patients randomized to LAQ 0.6 mg or PBO only. Endpoints include ARR, time to CDP (defined as an increase from baseline in EDSS score of ≧1 point if baseline EDSS is ≦5, or of ≧0.5 point if baseline EDSS is >5), sustained for 3 or 6 months; and MSFC components including the Timed 25-Foot Walk (T25FW) test.
LAQ vs. […] Adjusted mean z-score differences and 95% CIs were evaluated by ANCOVA.
MRI endpoints included brain atrophy measured percent brain volume change (PBVC), and cumulative numbers of gadolinium-enhancing (GdE) and new T2 lesions at months 12 and 24.

[2] = system: subjects with relapsing remitting multiple sclerosis (RRMS); assay: ALLEGRO Phase III trial: disability endpoints (EDSS, MSFC); assay type: in vivo, human; conditions: for Time to confirmed (3 Ms) progression - EDSS, patients progressed: 24 months
From the text: Secondary endpoints were disability progression as measured by the EDSS and the Multiple Sclerosis Functional Composite (MSFC). Confirmed disability progression was defined as an increase of ≧1.0 EDSS point from baseline if baseline EDSS was between 0 and 5.0, or an increase of ≧0.5 point if baseline EDSS was ≧5.5. In order to confirm EDSS progression, these increases had to be sustained for at least three months. Additional predefined disability endpoints include the proportion of patients without confirmed disability progression at 24 months; confirmed disability progression (defined as change in EDSS scores ≧1.0 points for baseline EDSS 0 to 5.0 or ≧5.5) sustained for six months; the accumulation of physical disability as measured by mean EDSS and the mean change in EDSS from baseline to last observed value (LOV). For the MSFC, the measure was the total MSFC z score at 24 months (including patients who terminated after 12 months). The 9-hole peg test (9HPT) and the Paced Auditory Serial Addition Test (PASAT) were performed three times at screening to reduce confounding training effects during the trial. • 1. Accumulation of physical disability measured by the time to confirmed progression of EDSS during the study period (A confirmed progression of EDSS is defined as a 1 point increase from baseline on EDSS score if baseline EDSS was between 0 and 5.0, or a 0.5 point increase if the baseline EDSS was 5.5, confirmed 3 months later. Progression cannot be confirmed during a relapse). • 2. Disability, as assessed by the MSFC score at the end of the treatment period (month 24/30). • 3. The cumulative number of new T2 lesions on scans taken on months 12 and 24 (and 30 in the case of the 6 months extended study). • 4. The cumulative number of enhancing lesions on T1-weighted images taken on months 12 and 24 (and 30 in case of extending the study for 6 months.) Safety and Tolerability Outcome Measures • 1. Adverse events. • 2. Vital signs. • 3. Weight. • 4. Physical examination. • 5. Electrocardiogram (ECG) findings. • 6. Clinical laboratory parameters. • 7. Proportion of subjects (%) who prematurely discontinued from the study, reason of discontinuation and the time to withdrawal. • 8. Proportion of subjects (%) who prematurely discontinued form the study due to AEs and the time to withdrawal. […] To control against type-I error, the secondary endpoints were analyzed only after a significant effect was found for the primary endpoint. […] The MSFC at month 24 was analyzed using a baseline-adjusted ANCOVA (SAS@PROC GLM) with baseline MSFC as 1 degree of freedom covariate and baseline EDSS score, log of the 2-year prior relapse rate +1 and country or geographical region as additional covariates. […]

CCN(C(=O)c1c(O)c2c(Cl)cccc2n(C)c1=O)c1ccccc1 [Laquinimod, laquinimod]
T25FW time increase after 24 months (adjusted mean) ([1]; baseline EDSS >3): 1.9 s
9HPT Change from Baseline to Month 24, Adj. Mean Diff. ([1]; baseline EDSS >3.0): −1.590
Brain Atrophy as defined by PBVC, adjusted mean difference ([1]; baseline EDSS >3.0): 0.39
Cumulative GdE T1 Lesions at Months 12 and 24, Rate Ratio ([1]; baseline EDSS >3.0): 0.83
Cumulative New/Enlarging T2 Lesions at Months 12 and 24, Rate Ratio ([1]; baseline EDSS >3.0): 0.75
Disability as Assessed by MSFC z-Score at Month 24, adjusted mean difference ([1]; baseline EDSS >3.0): 0.25
PASAT Change from Baseline to Month 24, Adj. Mean Diff. ([1]; baseline EDSS >3.0): 0.586
Time to 3-month CDP, Hazard Ratio ([1]; baseline EDSS >3.0): 0.60
Time to 6-month CDP, Hazard Ratio ([1]; baseline EDSS >3.0): 0.47
Reduction in 6-month CDP ([1]; baseline EDSS >3 (worsening MS), vs PBO): 53%
Reduction of 3-month CDP ([1]; baseline EDSS >3, vs PBO): 40%
Reduction of ARR ([1]; baseline EDSS >3, vs PBO): 25%
Improvement / treatment effect size on the T25FW component ([1]; baseline EDSS >3, vs PBO, 24 months): 59%
Annualized Relapse Rate, Ratio ([1]; baseline EDSS >3.0): 0.75
T25FW Change from Baseline to Month 24, Adj. Mean Diff. ([1]; baseline EDSS >3.0, listed as LAQ): -2.79 s
T25FW treatment effect among subjects who experienced CDP ([1]; baseline EDSS >3 with CDP, vs PBO): 8.6 s
Treatment differences in T25FW ([1]; baseline EDSS ≦3): No treatment differences
9HPT Change from Baseline to Month 24, Adj. Mean Diff. ([1]; baseline EDSS ≦3.0): −1.108
Brain Atrophy as defined by PBVC, adjusted mean difference ([1]; baseline EDSS ≦3.0): 0.34
Cumulative GdE T1 Lesions at Months 12 and 24, Rate Ratio ([1]; baseline EDSS ≦3.0): 0.66
Cumulative New/Enlarging T2 Lesions at Months 12 and 24, Rate Ratio ([1]; baseline EDSS ≦3.0): 0.77
Disability as Assessed by MSFC z-Score at Month 24, adjusted mean difference ([1]; baseline EDSS ≦3.0): −0.02
PASAT Change from Baseline to Month 24, Adj. Mean Diff. ([1]; baseline EDSS ≦3.0): 0.302
T25FW Change from Baseline to Month 24, Adj. Mean Diff. ([1]; baseline EDSS ≦3.0): 0.055 s
Time to 3-month CDP, Hazard Ratio ([1]; baseline EDSS ≦3.0): 0.69
Time to 6-month CDP, Hazard Ratio ([1]; baseline EDSS ≦3.0): 0.60
Annualized Relapse Rate, Ratio ([1]; baseline EDSS ≦3.0): 0.80
Time to confirmed (3 Ms) progression - EDSS, patients progressed [2]: 9.8% progressed
Time to confirmed (3 Ms) progression - EDSS, patients progressed ([2]; listed as laquinimod): 9.8 % progressed
EDSS score at LOV, median ([2]; last observed value): 2.5
MSFC total z scores at 24 months, Effect: reduction of risk to progress ([2]; vs placebo): 34% reduction of
